Test results as given in PubChem BioAssay AID1919003 (Molecular Pharmacology Branch, DTP, NCI, 2023).

Tested on: 786-0 complex spheroids with HUVEC/MSC, growth % test/control
Experiment: Anticancer human tumor 786-0 cell line growth inhibition [AhR];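 note: compound exposure lasted seven days before the read-out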
Settings: for IC50: curve of first compound; for viability, T/C: stronger effect = lower value
Excerpt: Multicellular complex tumor spheroid response to aryl hydrocarbon receptor antagonists in combination with a variety of drugs and investigational agents in selected tumor cell lines
The current study was undertaken to assess response to aryl hydrocarbon receptor antagonists in combination with standard-of-care drugs and investigational agents in solid tumor complex spheroid models. Complex spheroids include a stromal component modeled by human endothelial cells (HUVEC) and fibroblasts modeled by human mesenchymal stem cells (MSCs). The concentration ranges selected for each drug and investigational agent were based upon clinically achievable concentrations if the clinical Cmax of the agent was known.
Compounds. The drugs and investigational agents: BAY 2416964 (NSC825713), GNF351 (NSC835774), CH-223191 (NSC835775), CPI-455 (NSC825282), aza-TdCyd (NSC777586), decitabine (NSC127716), belinostat (NSC758774), entinostat (NSC756642), pevonedistat (NSC761192), tazemetostat (NSC777109), talazoparib (NSC765396), olaparib (NSC753686), selinexor (NSC780203), nedisertib (M3814, NSC802822), bortezomib (NSC756655), venetoclax (NSC766270), doxorubicin (NSC123127), elimusertib (BAY189344, NSC800525), ceralasertib (AZD6738, NSC777638), TAK-243 (NSC785004), alisertib (NSC759677), etoposide (NSC141540), topotecan (NSC609699), eribulin (NSC707389), gemcitabine (NSC613327), carboplatin (NSC241240), cisplatin (NSC119875), and SN-38 (NSC673596) were obtained from the National Cancer Institute (NCI) Developmental Therapeutics Program Chemical Repository (32). The FDA-approved anticancer drug set is available from the Developmental Therapeutics Program at https://dtp.cancer.gov/organization/dscb/obtaining/available plates.htm. […] The stock solutions were prepared in dimethyl sulfoxide (DMSO, Sigma-Aldrich, St. Louis, MO, cat. D2650), except for the platinum compounds which were prepared in saline (Quality Biological, Gaithersburg, MD, cat. 114-055-101), at 800-fold the tested concentration and stored at -70 degrees C prior to their use. All drugs and investigational agents were tested over a range starting from a high concentration at or near the clinical Cmax and decreasing in half-log increments. If the clinical Cmax for an agent had not been determined, the highest concentration tested was 10 microM (Table 1).
Cell Culture. All cells were maintained in an incubator at 37 degrees C and 5% CO2 with 95% humidity. The PDC lines were cultured according to standard operating procedures established by the NCI PDMR (https://pdmr.cancer.gov). Briefly, all PDCs were thawed and cultured in Matrigel-coated flasks prepared with a working solution of 1X Ham's F-12 nutrient mix, without supplementation (Invitrogen, Waltham, MA, cat. 11765054), 100 U/mL penicillin-streptomycin (Invitrogen, cat. 15140122), and 2.5% Matrigel (Corning Inc., Corning, NY, cat. 354248) for the first three passages. All PDCs were cultured in complete DMEM/F-12 media containing advanced DMEM/F-12 (Invitrogen, cat. 12634028), 4.9% defined fetal bovine serum, heat inactivated (HyClone Laboratories Inc., Logan, UT, cat. SH30070.03HI), 389 ng/mL hydrocortisone (Sigma-Aldrich, cat. H4001), 9.7 ng/mL human EGF recombinant protein (Invitrogen, cat. PHG0313), 23.4 microg/mL adenine (Sigma-Aldrich, cat. A2786), 97.3 U/mL penicillin-streptomycin (Invitrogen, cat. 15140122), 1.9 mM L-glutamine (Invitrogen, cat. 25030081), and 9.7 microM Y-27632 dihydrochloride (Tocris Bioscience, Bristol, United Kingdom, cat. 1254). The PDCs were cultured in complete DMEM/F12 media without 10 microM Y-27632 dihydrochloride for at least two passages prior to the screen. The established cell lines NCI-H1341 and […] were cultured in DMEM/F-12, HEPES (Invitrogen, cat. 11330032), 5% defined fetal bovine serum (HyClone Laboratories Inc., cat. SH30070.03), ITS premix universal culture supplement [insulin (5 microg/mL), transferrin (5 microg/mL), and selenious acid (5 ng/mL)] […]

[1] = second compound 0.1 µM, first compound 0.0316 µM
[2] = second compound 0.1 µM, first compound 0.1 µM
[3] = second compound 0.1 µM, first compound 0.316 µM
[4] = second compound 0.1 µM, first compound 1 µM
[5] = second compound 0.1 µM, first compound 3.16 µM
[6] = second compound 0.1 µM, first compound 10 µM
[7] = second compound 0.316 µM, first compound 0.0316 µM
[8] = second compound 0.316 µM, first compound 0.1 µM
[9] = second compound 0.316 µM, first compound 0.316 µM
[10] = second compound 0.316 µM, first compound 1 µM
[11] = second compound 0.316 µM, first compound 3.16 µM
[12] = second compound 0.316 µM, first compound 10 µM
[13] = second compound 1 µM, first compound 0.0316 µM
[14] = second compound 1 µM, first compound 0.1 µM
[15] = second compound 1 µM, first compound 0.316 µM
[16] = second compound 1 µM, first compound 1 µM
[17] = second compound 1 µM, first compound 3.16 µM
[18] = second compound 1 µM, first compound 10 µM
[19] = second compound 3.16 µM, first compound 0.0316 µM
[20] = second compound 3.16 µM, first compound 0.1 µM
[21] = second compound 3.16 µM, first compound 0.316 µM
[22] = second compound 3.16 µM, first compound 1 µM
[23] = second compound 3.16 µM, first compound 3.16 µM
[24] = second compound 3.16 µM, first compound 10 µM
[25] = second compound 10 µM, first compound 0.0316 µM
[26] = second compound 10 µM, first compound 0.1 µM
[27] = second compound 10 µM, first compound 0.316 µM
[28] = second compound 10 µM, first compound 1 µM
[29] = second compound 10 µM, first compound 3.16 µM
[30] = second compound 10 µM, first compound 10 µM

Structure (SMILES) | IC50 (second compound 0.1 µM) [nM] | IC50 (second compound 0.316 µM) [nM] | IC50 (second compound 1 µM) [nM] | IC50 (second compound 3.16 µM) [nM] | IC50 (second compound 10 µM) [nM] | viability, T/C [1] [%] | viability, T/C [2] [%] | viability, T/C [3] [%] | viability, T/C [4] [%] | viability, T/C [5] [%] | viability, T/C [6] [%] | viability, T/C [7] [%] | viability, T/C [8] [%] | viability, T/C [9] [%] | viability, T/C [13] [%] | viability, T/C [14] [%] | viability, T/C [19] [%] | viability, T/C [20] [%] | viability, T/C [25] [%] | viability, T/C [26] [%] | other results
CC1(C)CCC(CN2CCN(c3ccc(C(=O)NS(=O)(=O)c4ccc(NCC5CCOCC5)c([N+](=O)[O-])c4)c(Oc4cnc5[nH]ccc5c4)c3)CC2)=C(c2ccc(Cl)cc2)C1 + CC(CO)NC(=O)c1cc(-c2ccc(Cl)cc2)nn(-c2cnn(C)c2)c1=O | > 10000 | > 10000 | > 10000 | > 10000 | > 10000 | 109 | 101 | 106 | 99.9 | 90.7 | 77.7 | 105 | 115 | 101 | 105 | 103 | 116 | 111 | 114 | 135 | viability, T/C [10]: 98.4%; viability, T/C [11]: 91.3%; viability, T/C [12]: 81.3%; viability, T/C [15]: 106%; viability, T/C [16]: 97.9%; viability, T/C [17]: 104%; viability, T/C [18]: 80.8%; viability, T/C [21]: 104%; viability, T/C [22]: 96.4%; viability, T/C [23]: 82.9%; viability, T/C [24]: 82.5%; viability, T/C [27]: 109%; viability, T/C [28]: 122%; viability, T/C [29]: 98.4%; viability, T/C [30]: 86.4%
COc1cc(Nc2ncc3c(n2)-c2ccc(Cl)cc2C(c2c(F)cccc2OC)=NC3)ccc1C(=O)O + CC(CO)NC(=O)c1cc(-c2ccc(Cl)cc2)nn(-c2cnn(C)c2)c1=O | 2790 | 2600 | 2550 | 2540 | 2820 | 101 | 96.8 | 99.9 | 82 | 46.4 | 23.9 | 106 | 100 | 107 | 96.8 | 103 | 107 | 93.2 | 92.3 | 86.7 | viability, T/C [10]: 84.7%; viability, T/C [11]: 43.2%; viability, T/C [12]: 19.8%; viability, T/C [15]: 108%; viability, T/C [16]: 80.2%; viability, T/C [17]: 44%; viability, T/C [18]: 20.3%; viability, T/C [21]: 104%; viability, T/C [22]: 87.9%; viability, T/C [23]: 41.1%; viability, T/C [24]: 19.9%; viability, T/C [27]: 101%; viability, T/C [28]: 85%; viability, T/C [29]: 46.2%; viability, T/C [30]: 19.5%
Cn1ncnc1C1c2n[nH]c(=O)c3cc(F)cc(c23)NC1c1ccc(F)cc1 (stereo not given) + CC(CO)NC(=O)c1cc(-c2ccc(Cl)cc2)nn(-c2cnn(C)c2)c1=O | > 100 | > 100 | > 100 | > 100 | > 100 | 113 | 98.8 | – | – | – | – | 109 | 98.7 | – | 107 | 99.3 | 100 | 102 | 110 | 110 | viability, T/C (second compound 0.1 µM, first compound 0.000316 µM): 105%; viability, T/C (second compound 0.1 µM, first compound 0.001 µM): 97.4%; viability, T/C (second compound 0.1 µM, first compound 0.00316 µM): 95%; viability, T/C (second compound 0.1 µM, first compound 0.01 µM): 99.6%; viability, T/C (second compound 0.316 µM, first compound 0.000316 µM): 101%; viability, T/C (second compound 0.316 µM, first compound 0.001 µM): 105%; viability, T/C (second compound 0.316 µM, first compound 0.00316 µM): 97.8%; viability, T/C (second compound 0.316 µM, first compound 0.01 µM): 98.2%; viability, T/C (second compound 1 µM, first compound 0.000316 µM): 99.3%; viability, T/C (second compound 1 µM, first compound 0.001 µM): 107%; viability, T/C (second compound 1 µM, first compound 0.00316 µM): 105%; viability, T/C (second compound 1 µM, first compound 0.01 µM): 110%; viability, T/C (second compound 3.16 µM, first compound 0.000316 µM): 107%; viability, T/C (second compound 3.16 µM, first compound 0.001 µM): 102%; viability, T/C (second compound 3.16 µM, first compound 0.00316 µM): 99.1%; viability, T/C (second compound 3.16 µM, first compound 0.01 µM): 111%; viability, T/C (second compound 10 µM, first compound 0.000316 µM): 114%; viability, T/C (second compound 10 µM, first compound 0.001 µM): 118%; viability, T/C (second compound 10 µM, first compound 0.00316 µM): 110%; viability, T/C (second compound 10 µM, first compound 0.01 µM): 111%
NS(=O)(=O)OCC1CC(n2ccc3c(NC4CCc5ccccc54)ncnc32)CC1O (stereo not given) + CC(CO)NC(=O)c1cc(-c2ccc(Cl)cc2)nn(-c2cnn(C)c2)c1=O | 365 | 344 | 376 | 249 | 261 | 78.8 | 78.7 | 52.8 | 20.9 | 3.93 | 1.87 | 86.8 | 73.3 | 54.5 | 77.4 | 72.1 | 87.8 | 67.7 | 93 | 72.9 | viability, T/C [10]: 19.6%; viability, T/C [11]: 4.23%; viability, T/C [12]: 2.08%; viability, T/C [15]: 55.2%; viability, T/C [16]: 21.8%; viability, T/C [17]: 4%; viability, T/C [18]: 2.14%; viability, T/C [21]: 47.6%; viability, T/C [22]: 19.1%; viability, T/C [23]: 3.93%; viability, T/C [24]: 2.48%; viability, T/C [27]: 46.5%; viability, T/C [28]: 18.7%; viability, T/C [29]: 3.17%; viability, T/C [30]: 2.21%
